Experimental data reported in US20210024499A1, “OXIDIZED BIS(3-INDOLYL)METHANES AND USES THEREOF” (Sanford Burnam Prebys Medical Discovery Institute, priority 2018, published 2021).

Legend:
Assay type in all cases: cell-based
HCT116 cancer cells = assay: Cell viability (MTT) assay, HCT116; settings: Homo sapiens, HCT-116; inhibiting the growth of HCT116 cancer cells, cell viability assay (Table 5)
Method: Cell viability was analyzed by using a colorimetric 3-(4,5-dimethylthiazol-[…]2-yl)-2,5-diphenyletetrazolium Bromide (MTT) assay that determines mitochondrial dehydrogenase activities in the living cells with a colorimetric method. Cells treated with test compounds were incubated with MTT and their effect on the viability of the cells was assayed by the ability of treated cells to reduce the yellow tetrazolium dye MTT to its insoluble formazan, which has a purple color. […]

HeLa cells = assay: DAPI staining for apoptosis, HeLa
Method: In HeLa cells, about 60% apoptotic cells were detected when cells were treated with Compound 1 compared to less than 5% when cells were not treated with Compound 1. Apoptotic cells were counted in 200 cells.
We next examined whether Nur77 mitochondrial targeting induced by the combination of Compound 1/B12030 was apoptotic. HeLa cells were treated with either Compound 1 or BI2030 alone or in combination and apoptosis was examined by DAPI staining. About 7.2% or 9.1% of cells were apoptotic when treated with 0.5 μM Compound 1 or 1 μM BI2030, respectively, for 2 hours. […] Apoptotic cells were counted in 200 cells.

MDA-MB-231 cells = assay: Caspase 3 cleavage assay (Western blotting); settings: 6 hours, Western blotting (FIG. 2)
[1] = test system: Nur77 interaction with Bcl-2; assay: Confocal microscopy colocalization of Nur77 with Bcl-2

- IC50 (HCT116 cancer cells): < 500 nM
SMILES: FC(F)(F)c1ccc([C+](c2c[nH]c3ccccc23)c2c[nH]c3ccccc23)cc1 [Compound 1, Bis(1H-indol-3-yl)(4-(trifluoromethyl)phenyl)methylium methanesulfonate]
- apoptotic cells (DAPI staining), single agent (HeLa cells; 0.5 μM Compound 1 or 1 μM BI2030, 2 hours): About 7.2%
- apoptotic cells (DAPI staining) (HeLa cells; 0.5 μM, 6 hours, counted in 200 cells): about 60%
- apoptotic cells (DAPI staining), co-treated with Compound 1 and BI2030 (HeLa cells; co-treatment with BI2030, 2 hours): about 35.5%
- caspase 3 cleavage (MDA-MB-231 cells): dose dependent induction of caspase 3 cleavage
- colocalization of transfected GFP-Nur77 (and GFP-Nur77-LBD) with Bcl-2 [1]: promoted extensive colocalization
